According to PubChem BioAssay (NCI):
Several values for one entry are separate records, joined by “and”; a condition that tells them apart may be missing. Equal values may be shown once.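 Grown in 96-well plates, cells were treated for 48 hours with each compound at five concentrations. Insufficient inhibition: endpoint recorded as highest concentration tested. TGI: total growth inhibition.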

Key:
Test in all cases: NCI tumour cell line growth inhibition, 48 h
DMS 273 small cell lung = test system: DMS 273 small cell lung
HL-60(TB) leukemia = test system: HL-60(TB) leukemia
IGROV1 ovarian = test system: IGROV1 ovarian
M19-MEL melanoma = test system: M19-MEL melanoma
SN12K1 renal = test system: SN12K1 renal
OVCAR-8 ovarian = test system: OVCAR-8 ovarian
COLO 205 colon = test system: COLO 205 colon
EKVX NSCLC = test system: EKVX NSCLC
LOX IMVI melanoma = test system: LOX IMVI melanoma
K-562 leukemia = test system: K-562 leukemia
SK-MEL-2 melanoma = test system: SK-MEL-2 melanoma
UACC-62 melanoma = test system: UACC-62 melanoma
P388 leukemia = test system: P388 leukemia
CAKI-1 renal = test system: CAKI-1 renal
HOP-62 NSCLC = test system: HOP-62 NSCLC
SK-MEL-28 melanoma = test system: SK-MEL-28 melanoma
HT29 colon = test system: HT29 colon
A549 NSCLC = test system: A549 NSCLC
KM20L2 colon = test system: KM20L2 colon
DLD-1 colon = test system: DLD-1 colon
MCF7 breast = test system: MCF7 breast
SNB-19 CNS = test system: SNB-19 CNS
HOP-92 NSCLC = test system: HOP-92 NSCLC
NCI-H226 lung = test system: NCI-H226 lung
U251 CNS = test system: U251 CNS
OVCAR-3 ovarian = test system: OVCAR-3 ovarian
OVCAR-5 ovarian = test system: OVCAR-5 ovarian
NCI-H23 lung = test system: NCI-H23 lung
NCI-H460 lung = test system: NCI-H460 lung
HOP-18 NSCLC = test system: HOP-18 NSCLC
KM12 colon = test system: KM12 colon
UO-31 renal = test system: UO-31 renal
SF-539 CNS = test system: SF-539 CNS
P388/ADR leukemia = test system: P388/ADR leukemia
NCI-H522 lung = test system: NCI-H522 lung
SN12C renal = test system: SN12C renal
RPMI-8226 leukemia = test system: RPMI-8226 leukemia
SNB-75 CNS = test system: SNB-75 CNS
SK-MEL-5 melanoma = test system: SK-MEL-5 melanoma
SNB-78 CNS = test system: SNB-78 CNS
SF-295 CNS = test system: SF-295 CNS
SW-620 colon = test system: SW-620 colon
SF-268 CNS = test system: SF-268 CNS
HCT-116 colon = test system: HCT-116 colon
SK-OV-3 ovarian = test system: SK-OV-3 ovarian
MOLT-4 leukemia = test system: MOLT-4 leukemia
UACC-257 melanoma = test system: UACC-257 melanoma
MALME-3M melanoma = test system: MALME-3M melanoma
OVCAR-4 ovarian = test system: OVCAR-4 ovarian
A498 renal = test system: A498 renal
NCI/ADR-RES ovarian = test system: NCI/ADR-RES ovarian
HCT-15 colon = test system: HCT-15 colon
RXF 393 renal = test system: RXF 393 renal
XF 498 CNS = test system: XF 498 CNS
HCC-2998 colon = test system: HCC-2998 colon
DMS 114 small cell lung = test system: DMS 114 small cell lung
SR leukemia = test system: SR leukemia
ACHN renal = test system: ACHN renal
TK-10 renal = test system: TK-10 renal
LXFL 529 NSCLC = test system: LXFL 529 NSCLC
M14 melanoma = test system: M14 melanoma
RXF-631 renal = test system: RXF-631 renal
786-0 renal = test system: 786-0 renal
CCRF-CEM leukemia = test system: CCRF-CEM leukemia

Work on C#CC[N+](CCO)(CCO)CCCCCCCCCCCCCCCCCC yielded a TGI (DMS 273 small cell lung) of 22.6 µM, a TGI (HL-60(TB) leukemia) of 3.43 µM and a TGI (IGROV1 ovarian) of 5.13 µM. For the same compound, the TGI (M19-MEL melanoma) was 15 µM, the TGI (SN12K1 renal) was 30 µM and the TGI (OVCAR-8 ovarian) was 43.1 µM. The TGI (COLO 205 colon) was 27.1 µM, the TGI (EKVX NSCLC) was 51.1 µM and the TGI (LOX IMVI melanoma) was greater than 48.3 µM. The TGI (K-562 leukemia) was greater than 41.2 µM, the TGI (SK-MEL-2 melanoma) was 31.8 µM and the TGI (UACC-62 melanoma) was 25.4 µM. The TGI (P388 leukemia) was 2.5 µM, the TGI (CAKI-1 renal) was 15.9 µM and the TGI (HOP-62 NSCLC) was 25.5 µM. For the same compound, the TGI (SK-MEL-28 melanoma) was 30.6 µM, the TGI (HT29 colon) was 20.1 µM and the TGI (A549 NSCLC) was 36.5 µM. The TGI (KM20L2 colon) was 25.8 µM, the TGI (DLD-1 colon) was 24.5 µM and the TGI (MCF7 breast) was 36.5 µM. The TGI (SNB-19 CNS) was 20.7 µM, the TGI (HOP-92 NSCLC) was 5.2 µM and the TGI (NCI-H226 lung) was 29.2 µM. It also gave a TGI (U251 CNS) of 27.5 µM, a TGI (OVCAR-3 ovarian) of 35.9 µM and a TGI (OVCAR-5 ovarian) of 32.5 µM. It also gave a TGI (NCI-H23 lung) of 30.1 µM, a TGI (NCI-H460 lung) of 27.9 µM and a TGI (HOP-18 NSCLC) of 22.1 µM. For the same compound, the TGI (KM12 colon) was 8.97 µM, the TGI (UO-31 renal) was 34.9 µM and the TGI (SF-539 CNS) was 30.2 µM. It also gave a TGI (P388/ADR leukemia) greater than 43.7 µM, a TGI (NCI-H522 lung) of 21.7 µM and a TGI (SN12C renal) of 39.3 µM. For the same compound, the TGI (RPMI-8226 leukemia) was greater than 29 µM, the TGI (SNB-75 CNS) was 15.9 µM and the TGI (SK-MEL-5 melanoma) was 32.1 µM. The TGI (SNB-78 CNS) was 28.4 µM, the TGI (SF-295 CNS) was 24.1 µM and the TGI (SW-620 colon) was 34.9 µM. The TGI (SF-268 CNS) was 26.2 µM, the TGI (HCT-116 colon) was 27.4 µM and the TGI (SK-OV-3 ovarian) was 36.1 µM. The TGI (MOLT-4 leukemia) was 9.7 µM, the TGI (UACC-257 melanoma) was 31 µM and the TGI (MALME-3M melanoma) was 32.3 µM. The TGI (OVCAR-4 ovarian) was 25 µM, the TGI (A498 renal) was 37.8 µM and the TGI (NCI/ADR-RES ovarian) was 39.5 µM. It also gave a TGI (HCT-15 colon) of 50.8 µM, a TGI (RXF 393 renal) of 6.64 µM and a TGI (XF 498 CNS) of 17.3 µM. It also gave a TGI (HCC-2998 colon) of 23.7 µM and a TGI (DMS 114 small cell lung) of 33 µM.

For O=NN(CCCl)C(=O)NC1CCC(C(=O)O)CC1 (stereo not given), the TGI (DMS 273 small cell lung) was greater than 100 µM, the TGI (HL-60(TB) leukemia) was greater than 100 µM and the TGI (SR leukemia) was greater than 100 µM. It also gave a TGI (IGROV1 ovarian) greater than 100 µM, a TGI (M19-MEL melanoma) greater than 100 µM and a TGI (SN12K1 renal) greater than 100 µM. It also gave a TGI (OVCAR-8 ovarian) greater than 100 µM, a TGI (COLO 205 colon) greater than 100 µM and a TGI (EKVX NSCLC) greater than 100 µM. The TGI (LOX IMVI melanoma) was greater than 100 µM, the TGI (K-562 leukemia) was greater than 100 µM and the TGI (SK-MEL-2 melanoma) was greater than 100 µM. For the same compound, the TGI (UACC-62 melanoma) was greater than 100 µM, the TGI (P388 leukemia) was 16.2 µM and 19.2 µM and the TGI (CAKI-1 renal) was greater than 100 µM. The TGI (HOP-62 NSCLC) was greater than 100 µM, the TGI (SK-MEL-28 melanoma) was greater than 100 µM and the TGI (HT29 colon) was greater than 100 µM. For the same compound, the TGI (ACHN renal) was greater than 100 µM, the TGI (A549 NSCLC) was greater than 100 µM and the TGI (KM20L2 colon) was greater than 100 µM. It also gave a TGI (DLD-1 colon) greater than 100 µM, a TGI (MCF7 breast) greater than 100 µM and a TGI (SNB-19 CNS) greater than 100 µM. For the same compound, the TGI (TK-10 renal) was greater than 100 µM, the TGI (HOP-92 NSCLC) was greater than 100 µM and the TGI (NCI-H226 lung) was greater than 100 µM. The TGI (U251 CNS) was greater than 100 µM, the TGI (LXFL 529 NSCLC) was greater than 100 µM and the TGI (OVCAR-3 ovarian) was greater than 100 µM. The TGI (OVCAR-5 ovarian) was greater than 100 µM, the TGI (NCI-H23 lung) was greater than 100 µM and the TGI (M14 melanoma) was greater than 100 µM. The TGI (NCI-H460 lung) was greater than 100 µM, the TGI (HOP-18 NSCLC) was greater than 100 µM and the TGI (KM12 colon) was greater than 100 µM. For the same compound, the TGI (RXF-631 renal) was greater than 100 µM, the TGI (UO-31 renal) was greater than 100 µM and the TGI (SF-539 CNS) was greater than 100 µM. For the same compound, the TGI (P388/ADR leukemia) was 17.5 µM and 33.8 µM, the TGI (NCI-H522 lung) was 75.1 µM and > 100 µM and the TGI (SN12C renal) was greater than 100 µM. The TGI (RPMI-8226 leukemia) was greater than 100 µM, the TGI (SNB-75 CNS) was greater than 100 µM and the TGI (786-0 renal) was greater than 100 µM. The TGI (SK-MEL-5 melanoma) was greater than 100 µM, the TGI (SNB-78 CNS) was greater than 100 µM and the TGI (CCRF-CEM leukemia) was greater than 100 µM. It also gave a TGI (SF-295 CNS) greater than 100 µM, a TGI (SW-620 colon) greater than 100 µM and a TGI (SF-268 CNS) greater than 100 µM. It also gave a TGI (HCT-116 colon) greater than 100 µM, a TGI (SK-OV-3 ovarian) greater than 100 µM and a TGI (MOLT-4 leukemia) greater than 80.9 µM. It also gave a TGI (UACC-257 melanoma) greater than 100 µM, a TGI (MALME-3M melanoma) greater than 100 µM and a TGI (OVCAR-4 ovarian) greater than 100 µM. The TGI (A498 renal) was greater than 100 µM, the TGI (NCI/ADR-RES ovarian) was greater than 100 µM and the TGI (HCT-15 colon) was greater than 100 µM. It also gave a TGI (RXF 393 renal) greater than 100 µM, a TGI (XF 498 CNS) greater than 100 µM and a TGI (HCC-2998 colon) greater than 100 µM. For the same compound, the TGI (DMS 114 small cell lung) was > 100 µM and 49 µM.
